Results: ChEMBL document CHEMBL5441456, “ASAP - SARS-CoV-2 nsp3 macrodomain dose response” (2024)
pIC50: −log10 of the molar value. Several values for one entry are separate records, joined by “and”; a condition that tells them apart may be missing. Identical values can stand only once.

target: Replicase polyprotein 1ab (Severe acute respiratory syndrome coronavirus 2, UniProt P0DTD1); assay: Functional biochemical assay to identify treatments for viral infectious disease that targets SARS-COV-2 nsp3 macrodomain, whereby the mechanism of action displaces an ADP-Ribose modified peptide from the binding site. Utilizing a time-resolved fluorescence method to measure binding by reading the emitted fluorescence intensity in two wavelengths.

SMILES	pIC50	IC50
CC(C)[C@@H](NC(=O)c1ncnc2[nH]ccc12)c1ccc2c(c1)S(=O)(=O)CCC2	< 4.00	
O=C(NCSC[C@@H](NC(=O)c1ncnc2[nH]ccc12)C(=O)O)c1ccccc1	< 4.00	
CC(C)[C@@H](Nc1ncnc2[nH]c(-c3ccoc3C#N)cc12)c1ccc2c(c1)OCCO2	5.57	
O[C@@H]1CCCC[C@@H]1Nc1ncnc2[nH]ccc12	< 4.00 and 4.02	
CCc1cnn(C)c1NC(=O)c1ncnc2[nH]ccc12	< 4.00	
CC(C)[C@@H](Nc1ncnc2[nH]ccc12)c1ccc2c(c1)CCCS2(=O)=O	5.52 and 5.58	
O=C(O)[C@H]1C[C@@H](F)CN1c1ncnc2[nH]ccc12	< 4.00	
COc1ccc([C@@H](CC(=O)O)NC(=O)c2cc3cccc(NC(=O)NC4CC4)c3[nH]2)cc1	< 4.00	
CC(C)[C@@H](Nc1cc(N2CCC[C@H]2C(=O)O)ncn1)c1ccc2c(c1)S(=O)(=O)CCC2	< 4.00	
CC(C)[C@@H](Nc1ncnc2[nH]c(-c3[nH]ncc3C3CC3)cc12)c1ccc2c(c1)OCCO2	4.79 and 4.85	
CC(C)[C@@H](NCc1ncc[nH]1)c1ccc2c(c1)OCCO2	< 4.00	
CC(C)[C@@H](Nc1ncnc(N2CCCC2)n1)c1ccc2c(c1)S(=O)(=O)CCC2	< 4.00	
Cc1[nH]c2ncnc(NC(=O)c3ccc(Cl)nn3)c2c1C	< 4.00	
c1ccc(-c2cc(CNc3ncnc4[nH]ccc34)on2)cc1	< 3.91	
CC(C)[C@@H](Nc1cc(NCC(F)(F)F)ncn1)c1ccc2c(c1)S(=O)(=O)CCC2	5.65	
O=C(O)C[C@@H](NC(=O)c1nccc2cc[nH]c12)c1ccc(Br)cc1	4.53 and 4.51	
CC(C)[C@@H](Nc1ncnc2[nH]c(-c3ccc(=O)n(C)c3)cc12)c1ccc2c(c1)S(=O)(=O)CCC2	7.30 and 7.34 and 7.40 and 7.32 and 7.11	
c1nc(Nc2ccc3c(c2)OCO3)c2cc[nH]c2n1	< 4.00	
CC(=O)N1CCN(Cc2cccc(-c3cc4c(N[C@@H](c5ccc6c(c5)S(=O)(=O)CCC6)C(C)C)ncnc4[nH]3)c2)CC1	6.59 and 6.73 and 6.49	
CC(C)[C@@H](Nc1ncnc2[nH]ccc12)c1ccc2c(c1)S(=O)(=O)NCC2	5.90 and 6.01	
CC(C)[C@@H](Nc1ncnc2[nH]c([C@@]3(O)CCCNC3)cc12)c1ccc2c(c1)OCCO2	4.75 and 4.86	
CC(C)[C@@H](Nc1cc(N2CCNCC2)ncn1)c1ccc2c(c1)S(=O)(=O)CCC2	< 4.00	
CC(C)[C@@H](Nc1ncnc2[nH]c(-c3ccc(C#N)nc3)cc12)c1ccc2c(c1)OCCO2	5.73 and 5.67	
Cc1cccc(C)c1-n1nnnc1CSc1ncnc2[nH]cnc12	< 4.00	

SMILES	pIC50	IC50
CC(C)[C@H](Nc1cc(-c2nc[nH]n2)ncn1)c1ccc2c(c1)S(=O)(=O)CCC2	< 4.00	
CC(C)[C@@H](Nc1ncnc2[nH]c(-c3cccc(C#N)c3)cc12)c1ccc2c(c1)OCCO2	4.75 and 4.66	
CCC[C@@H](Nc1ncnc2[nH]ccc12)C(=O)O	< 4.00	
Cc1n[nH]c(C)c1C(=O)N1CCC(c2ccn3ncc(C(=O)N4CCCCC4)c3c2)CC1	< 4.00	
CC(C)[C@@H](NC(=O)c1ccnc2ccccc12)c1ccc2c(c1)OCCO2	< 4.00	
CC(C)[C@@H](Nc1ncnc2[nH]c(-c3cnn(C(C)C)c3C#N)cc12)c1ccc2c(c1)OCCO2	5.73 and 5.69	
CC(C)[C@H](Nc1ncnc2[nH]c(-c3cnn(CC(=O)N(C)C)c3)cc12)c1ccc2c(c1)OCCO2	6.63 and 6.40	
CC(C)[C@@H](Nc1ncnc2[nH]c(C(=O)NCC3(CO)CC3)cc12)c1ccc2c(c1)OCCO2	6.10 and 5.67	
CC(C)[C@@H](Nc1ncnc2[nH]c(-c3cccc(Cn4ccnc4)c3)cc12)c1ccc2c(c1)OCCO2	< 4.00	
Cc1ccc(C(=O)Nc2ncnc3[nH]c(C)c(C)c23)cn1	< 4.00	
CS(=O)(=O)Nc1cccc([C@@H](CC(=O)O)NC(=O)c2ncnc3[nH]ccc23)c1	4.30 and 4.41 and 4.40	
CC(C)[C@@H](Nc1ncnc2[nH]c3cc(F)ccc3c12)c1ccc2c(c1)OCCO2	5.07 and 5.00	
O=C(O)c1cnc(C(=O)N2CCC(c3ccn4ncc(C(=O)N5CCCCC5)c4c3)CC2)cn1	< 4.00	
CC(C)(C)[C@H](Nc1ncnc2[nH]c(-c3cnn(CC(N)=O)c3)cc12)c1ccc2c(n1)OCCO2	4.85 and 4.97	
CC(C)[C@@H](Nc1ncnc2[nH]c(-c3ccc4cncn4c3)cc12)c1ccc2c(c1)S(=O)(=O)CCC2	6.91 and 7.02	
CC(C)[C@@H](Nc1cc(N)ncn1)c1ccc2c(c1)S(=O)(=O)CCC2	4.36	
CC(C)[C@@H](Nc1ncnc2[nH]cc(S(N)(=O)=O)c12)c1ccc2c(c1)OCCO2	5.46 and 5.51	
Cc1[nH]c2ncnc(NC(=O)c3ccc(-n4cccn4)nc3)c2c1C	< 4.00	
Cn1ncc2c(N[C@@H](c3ccc4c(c3)OCCO4)C3CC3)ncnc21	< 4.00	
C[C@@H](Cc1ccc(Cl)s1)Nc1ccc([C@@H](CC(=O)O)NC(=O)c2ncnc3[nH]ccc23)cc1	4.33	
CC(C)[C@H](Nc1ncnc2[nH]c(-c3cnn(CC(N)=O)c3)cc12)c1ccc2c(c1)NC(=O)CO2	< 4.00	
Cc1c(-c2cc3c(N[C@@H](c4ccc5c(c4)OCCO5)C(C)C)ncnc3[nH]2)cnn1C	6.19 and 6.15	
Cn1ncc(-c2cc3c(N[C@H](c4ccc5c(n4)OCCO5)C(C)(C)C)ncnc3[nH]2)c1C#N	5.30 and 5.63 and 5.51 and 5.62 and 4.97	
O=C(O)[C@H](CC1CC1)Nc1ncnc2[nH]ccc12	< 4.00	

SMILES	pIC50	IC50
Cc1cnn(-c2ccc(-c3cc4c(N[C@@H](c5ccc6c(c5)OCCO6)C(C)C)ncnc4[nH]3)cc2)c1	< 4.00	
CC(C)[C@@H](Nc1ncnc2[nH]c(C(=O)NC3CCN(C)CC3)cc12)c1ccc2c(c1)S(=O)(=O)CCC2	6.68	
O=C(Nc1ccc2c(C(=O)N[C@@H]3c4ccccc4C[C@@H]3C(=O)O)cnn2c1)NC1CC1	4.20 and 4.31	
COCc1cc(CNc2ccc([C@@H](CC(=O)O)NC(=O)c3ncnc4[nH]ccc34)cc2)on1	4.97 and 4.91	
CC(C)[C@@H](Nc1ncnc2[nH]c(-c3cc(O)nc4ccccc34)cc12)c1ccc2c(c1)S(=O)(=O)CCC2	5.78	
Cc1[nH]nc2ncc(C(=O)N[C@@H](c3ccc4c(c3)OCCO4)C(C)C)cc12	< 4.00	
CC(C)[C@@H](Nc1ncnc2[nH]c(-c3cnc4c(c3)CC(=O)N4)cc12)c1ccc2c(c1)OCCO2	5.89 and 5.82	
CC(C)[C@@H](Nc1ncnc2[nH]c(-c3cnn(CC(=O)N(C)C)c3)cc12)c1ccc2c(c1)S(=O)(=O)CCC2	7.41 and 7.26 and 7.52 and 7.59 and 7.35 and 7.54 and 7.48	
Cc1nc2nc[nH]c(NC(=O)c3ccc(NC(=O)NC4CC4)nc3)c-2c1C	< 4.00	
CC(C)[C@@H](Nc1ncnc2[nH]c(C3=CCS(=O)(=O)C3)cc12)c1ccc2c(c1)S(=O)(=O)CCC2	6.97 and 6.77 and 6.93	
O=C(O)[C@@H](CC1CCCCC1)Nc1ncnc2[nH]ccc12	4.13 and 4.15	
CC(C)[C@@H](Nc1ncnc2[nH]c(C(=O)NCC(C)(C)C#N)cc12)c1ccc2c(c1)OCCO2	5.68 and 5.37	
Cc1nnc(CNC(=O)c2cc3c(N[C@@H](c4ccc5c(c4)OCCO5)C(C)C)ncnc3[nH]2)o1	5.95	
O=S(=O)(Cc1ccccc1F)Nc1cnc2[nH]ccc2c1	< 4.00	
COC(=O)c1cc(-c2cc3c(N[C@@H](c4ccc5c(c4)OCCO5)C(C)C)ncnc3[nH]2)c[nH]1	5.30	
CC(C)[C@@H](Nc1ncnc2[nH]ccc12)c1nc2ccccc2[nH]1	4.02	
O=C(O)C[C@@H](NC(=O)c1ncnc2[nH]ccc12)c1ccc(Nc2nnco2)cc1	5.18 and 5.26	
CC(C)[C@H](Nc1ncnc2[nH]ccc12)C(=O)O	4.47	
N=C(N)C[C@@H](NC(=O)c1ncnc2[nH]ccc12)c1ccc(Br)cc1	< 4.00	
CCn1ncc(-c2cc3c(N[C@@H](c4ccc5c(c4)OCCO5)C(C)C)ncnc3[nH]2)c1C#N	6.07 and 6.10	
Cc1[nH]c2ncnc(NC(=O)c3cc(Cl)ccn3)c2c1C	< 4.00	
c1nc(N[C@@H](c2ccc3c(c2)OCCO3)C2CC2)c2cn[nH]c2n1	4.75 and 4.70	
CNC(=O)c1cc2c(N[C@@H](c3ccc4c(c3)S(=O)(=O)CCC4)C(C)C)ncnc2[nH]1		52 nM (2×) and 78 nM and 24 nM and 48 nM and 38 nM and 35 nM and 60 nM
O=C(Nc1ccc(C(=O)N[C@@H]2c3ccccc3C[C@@H]2C(=O)O)cc1)c1ccc2c(c1)OCCO2	< 4.00	

SMILES	pIC50	IC50
CN1CC[C@@H]1[C@@H](Nc1ncnc2[nH]ccc12)c1ccc2c(c1)OCCO2	< 4.00 and 4.18	
CC(C)[C@@H](Nc1ncnc2[nH]c(C(=O)NCc3ncccn3)cc12)c1ccc2c(c1)OCCO2	5.53 and 5.23	
CC(C)[C@@H](Nc1ncnc2[nH]c(C3CCS(=O)(=O)CC3)cc12)c1ccc2c(c1)OCCO2	5.93 and 5.75	
COc1nc(N[C@@H](c2ccc3c(c2)OCCO3)C(C)C)c2cc[nH]c2n1	< 4.00	
CC(C)[C@@H](Nc1ncnc2[nH]c(-c3cc[nH]n3)cc12)c1ccc2c(c1)OCCO2	5.74 and 5.73	
O=C(O)C[C@@H](NC(=O)c1ccc(NC(=O)NC2CC2)cc1)c1cccnc1	4.11 and 4.17	
CC(C)[C@@H](Nc1ncnc2[nH]cc(S(=O)(=O)N(C)C)c12)c1ccc2c(c1)OCCO2	5.46 and 5.40	
O=C(O)c1ccc(C(=O)N2CCC(c3ccn4ncc(C(=O)N5CCCCC5)c4c3)CC2)o1	4.17	
CNCc1cc(-c2cc3c(N[C@H](c4ccc5c(c4)S(=O)(=O)CCC5)C(C)C)ncnc3[nH]2)co1	5.65 and 5.72 and 6.01	
CC(C)[C@@H](Nc1cc(N2CCOCC2)ncn1)c1ccc2c(c1)S(=O)(=O)CCC2	< 4.00	
O=C(O)C[C@@H](NC(=O)c1ccc2[nH]ccc2n1)c1ccc(Br)cc1	4.38 and 4.42	
CC(C)[C@@H](Nc1ncnc2[nH]c(-c3ccc(S(N)(=O)=O)c4nsnc34)cc12)c1ccc2c(c1)S(=O)(=O)CCC2	6.62	
CC(C)[C@H](Nc1ncnc2c1NCCO2)c1ccc2c(c1)S(=O)(=O)CCC2	< 4.00	
CC(C)[C@@H](Nc1ncnc2[nH]c(C(=O)NCC3(F)CC3)cc12)c1ccc2c(c1)OCCO2	5.87 and 5.70	
O=C(N[C@@H](Cc1ccc(Br)cc1)C(=O)O)c1ncnc2[nH]ccc12	< 4.00	
O=C(OCc1ncccc1Cl)c1ncnc2[nH]ccc12	< 4.00	
CC(C)[C@@H](Nc1ncnc2[nH]c(-c3cn[nH]c3)cc12)c1ccc2c(c1)S(=O)(=O)CCC2	7.20 and 7.28 and 7.07 and 7.24 and 7.22	
CNCc1cc(-c2cc3c(N[C@@H](c4ccc5c(c4)NC(=O)CO5)C(C)C)ncnc3[nH]2)co1	6.50 and 6.73	
CC(C)[C@@H](Nc1ncnc2[nH]ccc12)c1cccc(C(F)(F)F)c1	4.08 and 4.11	
CC(C)[C@@H](Nc1ncnc2[nH]c(-c3ccc4nccn4c3)cc12)c1ccc2c(c1)OCCO2	5.94 and 5.86	
CC(C)[C@H](Nc1ncnc2cn[nH]c12)c1ccc2c(c1)S(=O)(=O)CCC2	< 4.00	
